Results: patent publication US6248905A, “Acyl derivatives of glycosyl-L-ascorbic acid” (priority 1998, dated 2001)

Experiments:
[1] = physchem; settings: phosphate buffer, pH 7
Experimental: To the solution was added 9.8 ml of 100 mM phosphate buffered aqueous solution (pH 7.0), and the aqueous solution was sterilized, and then incubated at 37° C. or 60° C. while the aqueous solution was sampled at prescribed times, followed by freezing the samples instantly at -30° C. for storing. Thereafter, the aqueous solution stored by freezing was thawed, analyzed on HPLC, and determined for the remaining content of the acyl derivatives based on the absorbance at a wavelength of 254 nm.

[2] = Radical-entrapping ability (DPPH oxidation-inhibitory activity); assay type: biochemical; settings: for EC50: DPPH, ambient temperature, 20 min, read-out: EC50 (50% oxidation-inhibitory-concentration); for Oxidation inhibitory effect (%): sample concentration 10^-4 M
Experimental: In parallel, as a control, a system using a 60 v/v % aqueous ethanol solution was provided in place of the test samples, and treated similarly as in the case of the acyl derivatives. The percentage (%) of the absorbance of the test samples to that of the control was regarded as an oxidation-inhibitory activity, and the activity was used as an index of radical-entrapping ability. The 50% oxidation-inhibitory-concentration (EC50) was calculated based on a logarithmic value of a concentration of the test sample used and on an oxidation-inhibitory ability shown by the sample at the concentration.

[3] = tested on: guinea pigs with scorbutus; experiment: Anti-scorbutus test; assay type: in vivo, male Hurtley's guinea pigs; settings: for days needed to recover maximum body weight before initiating the administration: oral, 56.80 μmol/head/shot once every morning
Experimental: In accordance with the method as reported in Journal of Pharmacobio-Dynamics, Vol. 13, pp. 688-695 (1990) by the present inventors, male Hurtley's guinea pigs, 4-week-old, were bred under free intake of water and vitamin C-defective food, commercialized by Oriental Yeast Co., Ltd., Tokyo, Japan, while the guinea pigs were weighed every morning at a prescribed time as an index of the symptom of anti-scorbutus disease. […] In parallel, one group as a control, in which guinea pigs were administered with only a fresh preparation of the same water free of the specimens, was provided and treated similarly as in the groups with the specimens.

[4] = tested on: artificial skin (TESTSKIN, human-skin-restructuring-model); experiment: Skin permeation test using TESTSKIN; settings: 10 mM, 37° C., peak levels
[5] = Dynamic test, intravenous administration to rats (blood level); assay type: in vivo, Male Wister/ST rats
Experimental: Male Wister/ST rats, 12-14-week-old, were fasted for 16 hours and, under an anesthetic, 200-μl blood was taken from their hearts using a syringe injected with a physiological saline containing 600 units/ml heparin. […] Just after the administration and after a prescribed period of time from the administration, blood was taken from the rats similarly as above at a prescribed time interval, and the blood taken was admixed with an adequate amount of heparin and instantly centrifuged at 4° C. to collect supernatants.

Structure (SMILES): O=C1O[C@H]([C@@H](O)CO)C(O)=C1O[C@H]1O[C@H](CO)[C@@H](O)[C@H](O)[C@H]1O [AA 2G, 2-O-α-D-Monoglucopyranosyl-L-ascorbic acid]
- degraded at 48 h [1]: 3.9%
- degraded at 336 h [1]: 1.6%
- EC50 [2]: 90.3 µM
- Oxidation inhibitory effect (%) [2]: 55.4%
- internal bleeding caused by scorbutus ([3]; anatomic finding): no such an observation
- blood level of alkaline phosphatase ([3]; blood): recovered almost to the normal level
- level of L-ascorbic acid in the blood ([3]; blood, numeral data excluded): recovered nearly to a normal level
- level of L-ascorbic acid in the liver ([3]; liver, numeral data excluded): recovered nearly to a normal level
- days needed to recover maximum body weight before initiating the administration [3]: eight

Structure (SMILES): O=C1O[C@H]([C@@H](O)CO)C(O)=C1O [AsA, L-Ascorbic acid]
- degraded at 12 h [1]: 75.9%
- degraded at 72 h [1]: 68.3%
- EC50 [2]: 46.4 µM
- Oxidation inhibitory effect (%) [2]: 93.7%

Structure (SMILES): CCCC(=O)OC[C@H](O)[C@H]1OC(=O)C(O[C@H]2O[C@H](CO)[C@@H](O)[C@H](O)[C@H]2O)=C1O [Example 6-Buty-AA-2G, 6-O-butyryl-2-O-α-D-monoglucopyranosyl-L-ascorbic acid]
- EC50 [2]: 99.8 µM
- Oxidation inhibitory effect (%) [2]: 50.1%

Structure (SMILES): CCCCCCCCCC(=O)OC[C@H](O)[C@H]1OC(=O)C(O[C@H]2O[C@H](CO)[C@@H](O)[C@H](O)[C@H]2O)=C1O [Example 6-Deca-AA-2G, 6-O-decanoyl-2-O-α-D-monoglucopyranosyl-L-ascorbic acid]
- EC50 [2]: 73 µM
- Oxidation inhibitory effect (%) [2]: 67.5%

Structure (SMILES): CCCCCCCCCCCC(=O)OC[C@H](O)[C@H]1OC(=O)C(O[C@H]2O[C@H](CO)[C@@H](O)[C@H](O)[C@H]2O)=C1O [Example 6-Dode-AA-2G, 6-O-dodecanoyl-2-O-α-D-monoglucopyranosyl-L-ascorbic acid]
- EC50 [2]: 63.2 µM
- Oxidation inhibitory effect (%) [2]: 78.3%
- skin permeability (peak level) relative to L-ascorbic acid [4]: 7 times

Structure (SMILES): CCCCCC(=O)OC[C@H](O)[C@H]1OC(=O)C(O[C@H]2O[C@H](CO)[C@@H](O)[C@H](O)[C@H]2O)=C1O [Example 6-Hexa-AA-2G, 2-O-α-D-monoglucopyranosyl-6-O-hexanoyl-L-ascorbic acid]
- EC50 [2]: 91 µM
- Oxidation inhibitory effect (%) [2]: 55.1%

Structure (SMILES): CCCCCCCC(=O)OC[C@H](O)[C@H]1OC(=O)C(O[C@H]2O[C@H](CO)[C@@H](O)[C@H](O)[C@H]2O)=C1O [Example 6-Octa-AA-2G, 2-O-α-D-monoglucopyranosyl-6-O-octanoyl-L-ascorbic acid]
- blood level of 2-O-α-D-monoglucopyranosyl-L-ascorbic acid after its maximum, when administered with 6-Octa-AA-2G ([5]; metabolite, after maximum): undetectable level
- concentration at 0.25 h ([5]; rat, blood, 15 min after administration, read-out: blood level of 6-Octa-AA-2G): 38.2 µM
- concentration at 2 min ([5]; rat, blood, two minutes after administration, read-out: blood level of 6-Octa-AA-2G): 525 µM
- blood level of L-ascorbic acid compared with 2-O-α-D-monoglucopyranosyl-L-ascorbic acid ([5]; throughout experiment): exceeded
- EC50 [2]: 82.7 µM
- Oxidation inhibitory effect (%) [2]: 60.4%
- days needed to recover maximum body weight before initiating the administration [3]: six
